Measurements: ChEMBL document CHEMBL4382254, “Design, synthesis, structure-activity relationships and mechanism of action of new quinoline derivatives as potential antitumor agents” (Eur J Med Chem, 2019)
The source made the active and inactive calls. The calls are words filed in the database; no cut-off is given here.

Tests used:
FHC = assay: Cytotoxicity against human FHC cells assessed as reduction in cell viability at 10 to 20 uM incubated for 24 hrs by CCK8 assay; format: cell-based
[1] = Solubility of the compound in water; format: physicochemical
HCT-116 [2] = assay: Induction of morphological changes in human HCT116 cells assessed as cell shrinkage at 5 to 10 uM after 24 hrs by phase contrast microscopic analysis; format: functional, cell-based
HCT-116 [3] = assay: Induction of apoptosis in P53-deficient human HCT116 cells assessed as necrotic cells at 5 uM after 24 hrs by Annexin V-FITC/propidium iodide staining based flow cytometry (reference value: 4.45%); format: functional
HCT-116 [4] = assay: Anticancer activity against human HCT116 cells xenografted in […] mouse assessed as reduction in tumor weight at 80 mg/kg administered once every 3 days for 21 days; format: functional, organism-based
[5] = target: Cellular tumor antigen p53 (Homo sapiens) (UniProt P04637); assay: Activation of P53 in human HCT116 cells assessed as increase in PUMA expression at 2.5 to 20 uM after 24 hrs by immunoblot analysis; format: cell-based
[6] = target: Cellular tumor antigen p53 (Homo sapiens) (UniProt P04637); assay: Induction of P53 phosphorylation at Ser15 residue in human HCT116 cells after 15 to 90 mins by immunoblot analysis; format: cell-based
HCT-116 [7] = assay: Cytotoxicity against human HCT116 cells after 48 hrs by MTT assay; format: functional, cell-based; settings: HCT-116, 48 h
HCT-116 [8] = assay: Cell cycle arrest in human HCT116 cells assessed as accumulation at G2/M phase at 5 uM after 24 hrs by propidium iodide staining based flow cytometry (reference value: 16.3%); format: functional
RKO [9] = assay: Cytotoxicity against human RKO cells after 48 hrs by MTT assay; format: functional, cell-based
HCT-116 [10] = assay: Induction of intracellular reactive oxygen species generation in human HCT116 cells at 5 to 10 uM after 24 hrs by DCFH-DA staining based flow cytometry; format: functional, cell-based
HCT-116 [11] = assay: Induction of apoptosis in P53-deficient human HCT116 cells assessed as increase in Bax expression at 2.5 to 20 uM after 24 hrs by immunoblot analysis; format: functional, cell-based
HCT-116 [12] = assay: Induction of morphological changes in human HCT116 cells assessed as reduction in cell number at 5 to 10 uM after 24 hrs by phase contrast microscopic analysis; format: functional, cell-based
HCT-116 [13] = assay: Induction of apoptosis in human HCT116 cells assessed as late apoptotic cells at 5 uM after 24 hrs by Annexin V-FITC/propidium iodide staining based flow cytometry (reference value: 6.08 to 11.92%); format: functional
HepG2 = assay: Cytotoxicity against human HepG2 cells after 48 hrs by MTT assay; format: functional, cell-based; settings: HepG2, 48 h
HCT-116 [14] = assay: Induction of apoptosis in human HCT116 cells assessed as early apoptotic cells at 5 uM after 24 hrs by Annexin V-FITC/propidium iodide staining based flow cytometry (reference value: 3.32 to 5.5%); format: functional
HCT-116 [15] = assay: Induction of apoptosis in Bax-deficient human HCT116 cells assessed as late apoptotic cells at 5 uM after 24 hrs by Annexin V-FITC/propidium iodide staining based flow cytometry (reference value: 14.67%); format: functional
DLD-1 [16] = assay: Induction of morphological changes in human DLD1 cells assessed as reduction in cell number at 5 to 10 uM after 24 hrs by phase contrast microscopic analysis; format: functional, cell-based
HCT-116 [17] = assay: Inhibition of colony formation in human HCT116 cells after 24 hrs by crystal violet staining based assay; format: functional, cell-based
[18] = target: Cellular tumor antigen p53 (Homo sapiens) (UniProt P04637); assay: Activation of P53 in human HCT116 cells assessed as increase in Bax expression at 2.5 to 20 uM after 24 hrs by immunoblot analysis; format: cell-based
RKO [19] = assay: Inhibition of colony formation in human RKO cells after 24 hrs by crystal violet staining based assay; format: functional, cell-based
HCT-116 [20] = assay: Induction of apoptosis in human HCT116 cells assessed as early apoptotic cells at 2.5 to 5 uM after 24 hrs in presence of pan-caspase inhibitor z-VAD-FMK by Annexin V-FITC/propidium iodide staining based flow cytometry (reference value: 2.5%); format: functional
BGC-823 = assay: Cytotoxicity against human BGC823 cells after 48 hrs by MTT assay; format: functional, cell-based; settings: BGC-823, 48 h
HCT-116 [21] = assay: Induction of apoptosis in Bax-deficient human HCT116 cells assessed as viable cells at 5 uM after 24 hrs by Annexin V-FITC/propidium iodide staining based flow cytometry (reference value: 70.58%); format: functional; settings: HCT-116, 24 h, read-out: Activity
[22] = target: Cellular tumor antigen p53 (Homo sapiens) (UniProt P04637); assay: Activation of P53 in human HCT116 cells assessed as increase in p21 expression at 2.5 to 20 uM after 24 hrs by immunoblot analysis; format: cell-based
HCT-116 [23] = assay: Induction of apoptosis in human HCT116 cells assessed as late apoptotic cells at 2.5 uM after 24 hrs by Annexin V-FITC/propidium iodide staining based flow cytometry (reference value: 6.08%); format: functional
HCT-116 [24] = assay: Induction of apoptosis in human HCT116 cells assessed as late apoptotic cells at 2.5 to 5 uM after 24 hrs in presence of pan-caspase inhibitor z-VAD-FMK by Annexin V-FITC/propidium iodide staining based flow cytometry (reference value: 7.29%); format: functional
HCT-116 [25] = assay: Induction of apoptosis in Bax-deficient human HCT116 cells assessed as early apoptotic cells at 5 uM after 24 hrs by Annexin V-FITC/propidium iodide staining based flow cytometry (reference value: 8.01%); format: functional
HCT-116 [26] = assay: Induction of apoptosis in human HCT116 cells assessed as viable cells at 5 uM after 24 hrs by Annexin V-FITC/propidium iodide staining based flow cytometry (reference value: 73.26 to 87.19%); format: functional; settings: HCT-116, 24 h, read-out: Activity
HCT-116 [27] = assay: Inhibition of colony formation in P53-deficient human HCT116 cells after 24 hrs by crystal violet staining based assay; format: functional, cell-based
DLD-1 [28] = assay: Induction of morphological changes in human DLD1 cells assessed as cell shrinkage at 5 to 10 uM after 24 hrs by phase contrast microscopic analysis; format: functional, cell-based
HCT-116 [29] = assay: Cytotoxicity against human HCT116 cells assessed as reduction in cell viability at 5 uM incubated for 24 hrs followed by compound washout by CCK8 assay; format: functional, cell-based; settings: TDE = time-dependent effect
NCI-H1650 = assay: Cytotoxicity against human NCI-H1650 cells after 48 hrs by MTT assay; format: functional, cell-based; settings: NCI-H1650, 48 h
HCT-116 [30] = assay: Induction of apoptosis in human HCT116 cells assessed as increase in cleaved PARP level at 2.5 to 10 uM after 24 hrs by immunoblot analysis; format: functional, cell-based
HCT-116 [31] = assay: Induction of apoptosis in human HCT116 cells assessed as necrotic cells at 2.5 uM after 24 hrs by Annexin V-FITC/propidium iodide staining based flow cytometry (reference value: 3.46%); format: functional
HCT-116 [32] = assay: Induction of apoptosis in human HCT116 cells assessed as necrotic cells at 2.5 to 5 uM after 24 hrs in presence of pan-caspase inhibitor z-VAD-FMK by Annexin V-FITC/propidium iodide staining based flow cytometry (reference value: 1.83%); format: functional
HCT-116 [33] = assay: Cytotoxicity against human HCT116 cells assessed as reduction in cell viability measured after 24 hrs by CCK8 assay; format: functional, cell-based; settings: HCT-116, 24 h
HCT-116 [34] = assay: Cytotoxicity against P53-deficient human HCT116 cells assessed as reduction in cell viability measured after 24 hrs by CCK8 assay; format: functional, cell-based; settings: HCT-116, 24 h

Chain of Cellular tumor antigen p53 (Homo sapiens) (P04637 whole entry, looked up): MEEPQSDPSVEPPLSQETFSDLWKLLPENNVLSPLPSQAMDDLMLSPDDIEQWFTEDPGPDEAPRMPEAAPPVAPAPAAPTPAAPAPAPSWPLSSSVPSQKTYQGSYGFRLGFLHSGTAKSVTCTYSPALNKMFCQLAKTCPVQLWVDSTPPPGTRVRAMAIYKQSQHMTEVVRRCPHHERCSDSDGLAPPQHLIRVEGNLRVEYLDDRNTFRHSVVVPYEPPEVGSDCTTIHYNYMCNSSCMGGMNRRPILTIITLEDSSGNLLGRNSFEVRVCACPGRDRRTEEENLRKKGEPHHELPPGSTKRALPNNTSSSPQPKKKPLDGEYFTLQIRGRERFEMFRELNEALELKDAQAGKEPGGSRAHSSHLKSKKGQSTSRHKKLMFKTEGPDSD

Question: With `CN(C)CCNc1ccnc2cc(OCc3ccc(F)cc3)ccc12` as the compound, how does the Activity (FHC) read?
Answer: Toxic

Question: And the solubility [1]?
Answer: > 10000 µg/mL

Question: What about the Activity (HCT-116 [2]) of the same compound?
Answer: Active

Question: And the Activity (HCT-116 [3])?
Answer: 4.45%

Question: And the Activity (HCT-116 [4])?
Answer: Active

Question: And the Activity [5]?
Answer: Active

Question: What about the Activity [6] of the same compound?
Answer: Active

Question: What about the IC50 (HCT-116 [7]) of the same compound?
Answer: 370 nM

Question: What about the Activity (HCT-116 [8]) of the same compound?
Answer: 12.94%

Question: And the IC50 (RKO [9])?
Answer: 580 nM

Question: What about the Activity (HCT-116 [10]) of the same compound?
Answer: inactive

Question: What about the Activity (HCT-116 [11]) of the same compound?
Answer: inactive

Question: And the Activity (HCT-116 [12])?
Answer: Active

Question: What about the Activity (HCT-116 [13]) of the same compound?
Answer: 17.49 - 17.54%

Question: What about the IC50 (HepG2) of the same compound?
Answer: 790 nM

Question: What about the Activity (HCT-116 [14]) of the same compound?
Answer: 6.13 - 19.42%

Question: What about the Activity (HCT-116 [15]) of the same compound?
Answer: 7.29%

Question: And the Activity (DLD-1 [16])?
Answer: Active

Question: What about the inhibition (HCT-116 [17]) of the same compound?
Answer: Dose-dependent effect

Question: And the Activity [18]?
Answer: Active

Question: And the inhibition (RKO [19])?
Answer: Dose-dependent effect

Question: What about the Activity (HCT-116 [20]) of the same compound?
Answer: 3.15%

Question: What about the IC50 (BGC-823) of the same compound?
Answer: 890 nM

Question: What about the viability at 5 µM (HCT-116 [21]) of the same compound?
Answer: 77.3%

Question: What about the Activity [22] of the same compound?
Answer: Active

Question: What about the Activity (HCT-116 [23]) of the same compound?
Answer: 10.32%

Question: What about the Activity (HCT-116 [24]) of the same compound?
Answer: 10.05%

Question: What about the Activity (HCT-116 [25]) of the same compound?
Answer: 24.16%

Question: And the viability at 5 µM (HCT-116 [26])?
Answer: 52.5 to 69.1%

Question: And the inhibition (HCT-116 [27])?
Answer: inactive

Question: And the Activity (DLD-1 [28])?
Answer: Active

Question: What about the Activity (HCT-116 [29]) of the same compound?
Answer: Tde

Question: What about the IC50 (NCI-H1650) of the same compound?
Answer: 780 nM

Question: What about the Activity (HCT-116 [30]) of the same compound?
Answer: Active

Question: And the Activity (HCT-116 [31])?
Answer: 6.64%

Question: What about the Activity (HCT-116 [32]) of the same compound?
Answer: 2.65%

Question: What about the IC50 (HCT-116 [33]) of the same compound?
Answer: 72.8 µM

Question: What about the IC50 (HCT-116 [34]) of the same compound?
Answer: 18.1 µM
